Target: T1, GPCR GPR40 (Homo sapiens, UniProt O14842)
T1 construct: expressed in transfected cells; host or cells: HEK293
Assay: In vitro FLIPR assay with recombinant cells which express the GPCR GPR40
Type: cell-based
Conditions: 100 μM test substance; intracellular Ca2+ change in recombinant HEK293 cells expressing GPR40; relative to control (0%: no test substance; 100%: 10 μM linoleic acid)
Procedure: In Vitro FLIPR Assay with Recombinant Cells which Express the GPCR GPR40
Function-testing assays were carried out by means of the FLIPR technique (“Fluorescence Imaging Plate Reader”, Molecular Devices Corp.). For this purpose, agonist-induced changes in the intracellular concentration of Ca^2+ in recombinant HEK293 cells which expressed the GPCR GPR40 were determined.
For the investigations, cells were seeded in 96-well microtiter plates (60 000 cells/well) and allowed to grow overnight. The medium was removed and the cells were incubated in buffer which contained the fluorescent dye fluo-4. After this loading with dye, the cells were washed, test substance was added, and changes in the intracellular Ca^2+ concentration were measured in the FLIPR instrument. Results have been presented as percentage change relative to the control (0%: no test substance added; 100%: 10 μM reference agonist linoleic acid added).

T1 sequence (O14842 whole entry): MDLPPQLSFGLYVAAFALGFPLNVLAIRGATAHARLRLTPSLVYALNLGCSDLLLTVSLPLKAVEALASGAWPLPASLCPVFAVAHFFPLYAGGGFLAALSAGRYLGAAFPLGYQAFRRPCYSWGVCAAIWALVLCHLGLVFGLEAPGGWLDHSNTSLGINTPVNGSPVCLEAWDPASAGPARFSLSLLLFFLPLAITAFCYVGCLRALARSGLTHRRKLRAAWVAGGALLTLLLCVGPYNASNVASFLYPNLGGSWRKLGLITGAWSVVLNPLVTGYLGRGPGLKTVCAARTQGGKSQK

SMILES	% activation @ 100 μM
O=C(O)CCCCC#Cc1ncc(-c2ccccc2)c(-c2ccccc2)n1 [Example 2, 7-(4,5-Diphenylpyrimidin-2-yl)-6-heptynoic Acid]	104%
O=C(O)CCCC#Cc1ncc(-c2ccccc2)c(-c2ccccc2)n1 [Example 1]	58%

— patent US7709490B2, “4,5-diphenyl-pyrimidinyl substituted carboxylic acids, method for the production and use thereof as medicaments” (Sanofi-Aventis, priority 2006, dated 2010)
